# Reference: PMC8042770, “Odorant Receptors for Detecting Flowering Plant Cues Are Functionally Conserved across Moths and Butterflies” (Molecular Biology and Evolution, 2020)
# Read-outs that look alike come from different tables or passages of the source.
# How the values were obtained:
# HarmOR63 = HarmOR63 (Helicoverpa armigera, UniProt A0A7T3N0P9); assay: Xenopus oocyte two-electrode voltage clamp, HarmOR63 + Orco; format: cell-based; conditions: dose response in oocytes, unit M
# Experimental: (§1) In order to expand our analysis on the response properties of HarmORs, we conducted dose–response analyses for the 28 functional HarmORs. […] Six HarmORs (OR3, 22, 48, 50, 56, and 66) could not be activated by any ligand at 10^−5 M. For the other 22 HarmORs, dose–response curves were generated and EC50 values of their major ligands were calculated (fig. 2A and supplementary table S2, Supplementary Material online). The HarmOR repertoire was highly efficient in terpene detection, since the lowest EC50 values were obtained for such compounds. Many of these terpenes have been proposed to be defensive chemicals of plants. […] DMNT is also one of the oviposition deterring compounds found in larval frass of some Lepidoptera species such as S. littoralis ([Anderson et al. 1993]).
# (§2) Functional characterization of individual ORs was performed by heterologous expression in Xenopus oocytes combined with a two-electrode voltage-clamp system ([Wang et al. 2010]). […] After incubation in nutrient solution at 18 °C for 3–5 days, the response profile of each oocyte to multiple plant odorants was recorded via a two-electrode voltage clamp (OC-725C oocyte clamp, Warner Instruments, Hamden, CT) at a holding potential of −80 mV. Data were acquired by using a Digidata 1440 A and were analyzed by pCLAMP 10.2 software (Axon Instruments Inc., Union City, CA). […]
# HarmOR7 = HarmOR7 (Helicoverpa armigera, UniProt A0A7T3KAD7); assay: Xenopus oocyte two-electrode voltage clamp, HarmOR7 + Orco; format: cell-based
# Chain of HarmOR7 (A0A7T3KAD7 1-411): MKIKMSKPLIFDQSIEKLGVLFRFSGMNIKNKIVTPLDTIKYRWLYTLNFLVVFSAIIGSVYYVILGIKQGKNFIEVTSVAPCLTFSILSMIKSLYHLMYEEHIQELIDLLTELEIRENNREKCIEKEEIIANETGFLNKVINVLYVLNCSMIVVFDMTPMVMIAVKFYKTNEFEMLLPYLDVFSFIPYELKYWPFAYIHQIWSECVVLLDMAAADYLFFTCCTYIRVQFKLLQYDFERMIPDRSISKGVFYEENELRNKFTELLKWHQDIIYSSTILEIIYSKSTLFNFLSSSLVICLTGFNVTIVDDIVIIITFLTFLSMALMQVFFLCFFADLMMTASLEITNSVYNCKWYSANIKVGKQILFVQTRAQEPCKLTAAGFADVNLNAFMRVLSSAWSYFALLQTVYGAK
# Experimental: as §1, §2
# HarmOR8 = HarmOR8 (Helicoverpa armigera, UniProt A0A7T3N2E2); assay: Xenopus oocyte two-electrode voltage clamp, HarmOR8 + Orco; format: cell-based; conditions: dose response in oocytes, unit M
# Chain of HarmOR8 (A0A7T3N2E2 1-406): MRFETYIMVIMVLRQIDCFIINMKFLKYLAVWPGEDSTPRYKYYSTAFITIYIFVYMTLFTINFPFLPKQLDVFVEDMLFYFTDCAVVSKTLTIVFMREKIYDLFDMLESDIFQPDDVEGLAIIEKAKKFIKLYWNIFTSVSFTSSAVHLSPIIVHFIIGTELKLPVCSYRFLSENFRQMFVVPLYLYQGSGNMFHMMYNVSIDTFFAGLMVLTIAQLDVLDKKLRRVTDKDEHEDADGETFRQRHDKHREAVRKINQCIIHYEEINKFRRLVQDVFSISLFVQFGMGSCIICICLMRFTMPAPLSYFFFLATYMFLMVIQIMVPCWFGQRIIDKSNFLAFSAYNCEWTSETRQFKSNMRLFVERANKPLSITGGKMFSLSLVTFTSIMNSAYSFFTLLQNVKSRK
# Experimental: as §1, §2
# HarmOR25 = HarmOR25 (Helicoverpa armigera, UniProt A0A7T3KAG7); assay: Xenopus oocyte two-electrode voltage clamp, HarmOR25 + Orco; format: cell-based
# Chain of HarmOR25 (A0A7T3KAG7 1-398): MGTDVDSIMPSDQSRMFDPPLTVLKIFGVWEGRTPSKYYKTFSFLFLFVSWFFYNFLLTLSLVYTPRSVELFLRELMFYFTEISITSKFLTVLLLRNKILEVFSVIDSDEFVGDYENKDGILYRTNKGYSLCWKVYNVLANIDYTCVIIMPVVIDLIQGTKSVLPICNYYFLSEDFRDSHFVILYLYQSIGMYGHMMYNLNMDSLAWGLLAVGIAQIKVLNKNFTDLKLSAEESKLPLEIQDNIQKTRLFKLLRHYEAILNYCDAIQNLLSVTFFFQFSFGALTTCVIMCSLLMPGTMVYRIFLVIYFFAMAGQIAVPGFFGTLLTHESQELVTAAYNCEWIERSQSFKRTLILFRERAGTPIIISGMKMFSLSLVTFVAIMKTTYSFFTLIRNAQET
# Experimental: as §1, §2
# HarmOR29 = HarmOR29 (Helicoverpa armigera, UniProt A0A7T3KAG0); assay: Xenopus oocyte two-electrode voltage clamp, HarmOR29 + Orco; format: cell-based; conditions: dose response in oocytes, unit M
# Chain of HarmOR29 (A0A7T3KAG0 1-395): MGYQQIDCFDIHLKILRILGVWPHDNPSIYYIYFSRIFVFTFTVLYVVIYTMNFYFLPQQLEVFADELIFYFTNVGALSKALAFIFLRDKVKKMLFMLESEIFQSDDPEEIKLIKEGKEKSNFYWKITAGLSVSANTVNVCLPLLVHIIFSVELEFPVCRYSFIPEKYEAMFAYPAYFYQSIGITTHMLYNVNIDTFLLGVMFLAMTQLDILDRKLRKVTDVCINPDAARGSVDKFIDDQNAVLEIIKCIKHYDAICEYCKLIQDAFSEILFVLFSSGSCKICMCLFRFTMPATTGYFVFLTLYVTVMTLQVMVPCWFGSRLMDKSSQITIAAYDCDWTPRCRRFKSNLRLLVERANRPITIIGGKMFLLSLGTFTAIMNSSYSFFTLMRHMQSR
# Experimental: as §1, §2
# HarmOR60 = biological target: T1, HarmOR60 (Helicoverpa armigera, UniProt A0A7T3N1B9); assay: Xenopus oocyte two-electrode voltage clamp, HarmOR60 + Orco; format: cell-based
# T1 sequence (A0A7T3N1B9 1-391): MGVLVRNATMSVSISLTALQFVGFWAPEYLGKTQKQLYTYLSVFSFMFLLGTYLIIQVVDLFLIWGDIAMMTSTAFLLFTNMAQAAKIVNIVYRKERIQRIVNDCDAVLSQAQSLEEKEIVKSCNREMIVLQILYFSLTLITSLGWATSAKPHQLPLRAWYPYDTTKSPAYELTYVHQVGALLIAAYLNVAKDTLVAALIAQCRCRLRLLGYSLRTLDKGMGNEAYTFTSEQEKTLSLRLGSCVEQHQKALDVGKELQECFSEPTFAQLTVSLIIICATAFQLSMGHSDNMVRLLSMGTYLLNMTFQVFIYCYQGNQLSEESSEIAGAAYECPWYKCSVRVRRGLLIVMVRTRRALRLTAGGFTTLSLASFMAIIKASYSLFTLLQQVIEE
# Experimental: as §1
# Functional characterization of individual ORs was performed by heterologous expression in Xenopus oocytes combined with a two-electrode voltage-clamp system ([Wang et al. 2010]). Briefly, the full-length gene of each OR and Orco were subcloned into the eukaryotic expression vector pT7TS. cRNAs were generated from linearized expression vectors using the mMESSAGE mMACHINE T7 kit (Ambion, Austin, TX). Then, the cRNA mixture of ORx and Orco (27.6 ng each) was injected (Nanoliter 2010, WPI Inc., Sarasota, FL) into oocytes (stage V–VII). The respective Orcos of different species were used for functional studies of OR42 orthologs except for the four butterfly species (V. tameamea, P. xuthus, D. plexippus, and P. rapae), in which we used the Orco from P. xuthus. After incubation in nutrient solution at 18 °C for 3–5 days, the response profile of each oocyte to multiple plant odorants was recorded via a two-electrode voltage clamp (OC-725C oocyte clamp, Warner Instruments, Hamden, CT) at a holding potential of −80 mV. Data were acquired by using a Digidata 1440 A and were analyzed by pCLAMP 10.2 software (Axon Instruments Inc., Union City, CA). […]
# HarmOR35 = HarmOR35 (Helicoverpa armigera, UniProt A0A7T3N1A8); assay: Xenopus oocyte two-electrode voltage clamp, HarmOR35 + Orco; format: cell-based
# Chain of HarmOR35 (A0A7T3N1A8 entry or part of it): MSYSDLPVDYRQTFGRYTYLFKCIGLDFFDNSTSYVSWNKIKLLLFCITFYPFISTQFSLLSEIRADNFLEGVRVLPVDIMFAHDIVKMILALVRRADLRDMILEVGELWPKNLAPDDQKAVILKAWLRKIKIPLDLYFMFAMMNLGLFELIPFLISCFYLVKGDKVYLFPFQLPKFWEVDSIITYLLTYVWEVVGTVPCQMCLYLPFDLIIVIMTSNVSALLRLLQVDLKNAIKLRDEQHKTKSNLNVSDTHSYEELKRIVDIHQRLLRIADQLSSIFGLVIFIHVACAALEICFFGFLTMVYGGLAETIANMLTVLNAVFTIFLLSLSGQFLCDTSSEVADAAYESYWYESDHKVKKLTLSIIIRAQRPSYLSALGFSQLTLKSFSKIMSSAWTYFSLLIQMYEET
# Experimental: as §1, §2
# HarmOR31 = HarmOR31 (Helicoverpa armigera, UniProt A0A7T3N2E9); assay: Xenopus oocyte two-electrode voltage clamp, HarmOR31 + Orco; format: cell-based
# Chain of HarmOR31 (A0A7T3N2E9 entry or part of it): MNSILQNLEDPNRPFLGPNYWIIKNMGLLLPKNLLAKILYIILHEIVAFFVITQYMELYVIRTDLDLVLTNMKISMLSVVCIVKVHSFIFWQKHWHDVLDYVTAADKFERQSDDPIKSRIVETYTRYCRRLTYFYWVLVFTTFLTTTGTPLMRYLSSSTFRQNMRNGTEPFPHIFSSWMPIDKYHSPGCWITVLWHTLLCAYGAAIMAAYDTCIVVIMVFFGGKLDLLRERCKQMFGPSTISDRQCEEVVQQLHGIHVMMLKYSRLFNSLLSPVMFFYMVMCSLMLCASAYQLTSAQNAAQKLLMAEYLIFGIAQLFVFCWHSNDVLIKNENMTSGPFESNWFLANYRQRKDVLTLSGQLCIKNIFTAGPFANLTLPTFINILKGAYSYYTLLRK
# Excerpt: In order to expand our analysis on the response properties of HarmORs, we conducted dose–response analyses for the 28 functional HarmORs. […] Many of these terpenes have been proposed to be defensive chemicals of plants.
# Briefly, the full-length gene of each OR and Orco were subcloned into the eukaryotic expression vector pT7TS. cRNAs were generated from linearized expression vectors using the mMESSAGE mMACHINE T7 kit (Ambion, Austin, TX). […] The respective Orcos of different species were used for functional studies of OR42 orthologs except for the four butterfly species (V. tameamea, P. xuthus, D. plexippus, and P. rapae), in which we used the Orco from P. xuthus.
# (§3) Stock solutions of each odorant were prepared at 1 M using DMSO as a solvent, and each odorant was diluted in 1× Ringer’s solution to the indicated concentrations for electrophysiological recording. For functional screening of each HarmOR, a panel of 67 odorants belonging to three types of chemical classes: terpenes, aromatics, and aliphatics (short-chain fatty acid) were used (supplementary table S1, Supplementary Material online). For functional studies of OR42 orthologs from different species, six odorants including PAA, benzaldehyde, (E)-2-hexen-1-al, cinnamaldehyde, 2-phenylethanol, and heptanal were used.
# HarmOR26 = HarmOR26 (Helicoverpa armigera, UniProt A0A075T633); assay: Xenopus oocyte two-electrode voltage clamp, HarmOR26 + Orco; format: cell-based; conditions: dose response in oocytes, unit M printed in b12 only
# Chain of HarmOR26 (A0A075T633 1-408): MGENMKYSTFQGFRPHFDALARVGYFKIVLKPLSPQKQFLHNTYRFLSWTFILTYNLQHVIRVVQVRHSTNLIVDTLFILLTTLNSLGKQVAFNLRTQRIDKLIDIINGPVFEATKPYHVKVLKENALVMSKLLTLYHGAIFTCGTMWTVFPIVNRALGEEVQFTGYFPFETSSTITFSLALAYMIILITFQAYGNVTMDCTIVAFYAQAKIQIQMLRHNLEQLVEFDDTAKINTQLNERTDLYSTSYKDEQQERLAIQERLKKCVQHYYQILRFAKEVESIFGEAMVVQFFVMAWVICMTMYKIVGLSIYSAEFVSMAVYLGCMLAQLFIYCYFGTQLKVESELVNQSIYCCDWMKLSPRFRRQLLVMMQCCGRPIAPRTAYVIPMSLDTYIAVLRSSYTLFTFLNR
# Experimental: as §1, §2
# HarmOR40 = biological target: T2, HarmOR40 (Helicoverpa armigera, UniProt A0A7T3KBF4); assay: Xenopus oocyte two-electrode voltage clamp, HarmOR40 + Orco; format: cell-based; conditions: HarmOR40; dose response in oocytes; unit M printed in text only; read-out: EC50
# T2 sequence (A0A7T3KBF4 1-401): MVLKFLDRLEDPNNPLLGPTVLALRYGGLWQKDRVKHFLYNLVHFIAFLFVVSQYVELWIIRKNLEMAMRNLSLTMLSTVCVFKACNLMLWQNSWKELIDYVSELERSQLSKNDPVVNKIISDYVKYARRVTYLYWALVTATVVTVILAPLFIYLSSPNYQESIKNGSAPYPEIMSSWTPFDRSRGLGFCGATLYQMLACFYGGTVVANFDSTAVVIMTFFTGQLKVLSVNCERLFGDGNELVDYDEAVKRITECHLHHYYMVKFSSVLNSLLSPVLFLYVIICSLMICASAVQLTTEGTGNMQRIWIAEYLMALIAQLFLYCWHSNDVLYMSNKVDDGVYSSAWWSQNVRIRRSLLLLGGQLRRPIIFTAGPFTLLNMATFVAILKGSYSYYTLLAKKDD
# Experimental: as §1
# (§4) Functional characterization of individual ORs was performed by heterologous expression in Xenopus oocytes combined with a two-electrode voltage-clamp system ([Wang et al. 2010]). Briefly, the full-length gene of each OR and Orco were subcloned into the eukaryotic expression vector pT7TS. cRNAs were generated from linearized expression vectors using the mMESSAGE mMACHINE T7 kit (Ambion, Austin, TX). Then, the cRNA mixture of ORx and Orco (27.6 ng each) was injected (Nanoliter 2010, WPI Inc., Sarasota, FL) into oocytes (stage V–VII). The respective Orcos of different species were used for functional studies of OR42 orthologs except for the four butterfly species (V. tameamea, P. xuthus, D. plexippus, and P. rapae), in which we used the Orco from P. xuthus. After incubation in nutrient solution at 18 °C for 3–5 days, the response profile of each oocyte to multiple plant odorants was recorded via a two-electrode voltage clamp (OC-725C oocyte clamp, Warner Instruments, Hamden, CT) at a holding potential of −80 mV. Data were acquired by using a Digidata 1440 A and were analyzed by pCLAMP 10.2 software (Axon Instruments Inc., Union City, CA).
# as §3
# HarmOR55 = HarmOR55 (Helicoverpa armigera, UniProt A0A7T3N2G6); assay: Xenopus oocyte two-electrode voltage clamp, HarmOR55 + Orco; format: cell-based; conditions: dose response in oocytes, unit M
# Chain of HarmOR55 (A0A7T3N2G6 entry or part of it): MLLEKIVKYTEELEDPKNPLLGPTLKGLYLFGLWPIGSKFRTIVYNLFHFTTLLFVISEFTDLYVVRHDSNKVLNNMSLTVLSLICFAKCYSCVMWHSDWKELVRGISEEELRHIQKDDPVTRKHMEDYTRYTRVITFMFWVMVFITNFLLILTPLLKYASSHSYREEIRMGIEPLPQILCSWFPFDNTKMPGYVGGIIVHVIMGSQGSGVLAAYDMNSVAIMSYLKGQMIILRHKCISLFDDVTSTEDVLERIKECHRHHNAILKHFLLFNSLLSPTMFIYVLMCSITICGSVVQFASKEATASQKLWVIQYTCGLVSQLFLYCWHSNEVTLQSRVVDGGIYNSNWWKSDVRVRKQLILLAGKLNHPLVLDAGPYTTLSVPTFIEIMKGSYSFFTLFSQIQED
# Experimental: as §1, §2
# HarmOR repertoire = assay: Responses of the 28 functional HarmORs across odorant doses (PCA of oocyte currents); format: cell-based, Helicoverpa armigera; conditions: odorant 10^−7 M
# Excerpt: Vectors quantifying the responses of the 28 ORs to each odorant were projected onto a 3D landscape. This 3D representation captured 78.34% (10^−4 M), 65.11% (10^−5 M), 68.89% (10^−6 M), and 84.52% (10^−7 M) of the variation in the original 28D data set across different odorant concentrations. […] In addition, the capacity of the H. armigera odor space was highly dependent on odorant concentration. As the concentrations of odorants decreased, their positions in the odor space converged, with the ability to discriminate different odorants diminishing.
# as §4, §3
# Graphs and data statistics of OR response spectra, dose responses, EAG, and behavioral experiments were generated by Prism 7 (GraphPad Software, La Jolla, CA). A heat map was generated in Excel 2010 (Microsoft Corporation, WA). […] For tuning breadth analysis, the kurtosis values (K) were calculated by SPSS 22 (SPSS Inc., Chicago, IL) and were used to define the tuning spectra width, where smaller K values represent broader tuning spectra (fig. 1B). […]
# Chain of HarmOR63 (A0A7T3N0P9 1-407): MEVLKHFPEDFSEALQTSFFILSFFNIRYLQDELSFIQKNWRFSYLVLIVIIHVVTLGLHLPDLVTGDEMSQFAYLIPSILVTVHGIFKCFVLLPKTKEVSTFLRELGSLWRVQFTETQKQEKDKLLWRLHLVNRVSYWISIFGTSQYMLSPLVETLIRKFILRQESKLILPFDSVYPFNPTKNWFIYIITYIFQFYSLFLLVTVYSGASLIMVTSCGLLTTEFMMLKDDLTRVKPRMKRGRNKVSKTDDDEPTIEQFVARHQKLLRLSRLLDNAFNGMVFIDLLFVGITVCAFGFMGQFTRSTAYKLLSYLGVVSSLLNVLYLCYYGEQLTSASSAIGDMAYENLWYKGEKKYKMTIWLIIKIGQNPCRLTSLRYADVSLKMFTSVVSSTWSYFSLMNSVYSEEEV
smiles,measurement,setting,value
C=C1CC[C@H]2O[C@]2(C)CC[C@@H]2[C@@H]1CC2(C)C [(-)-Caryophyllene oxide],EC50,HarmOR63,52.1 µM
CC(=O)OCc1ccccc1 [Benzyl acetate],EC50,"HarmOR7; HarmOR7, dose response in oocytes, unit M, read-out: EC50",60.7 µM
C=CCc1ccc(OC)c(OC)c1 [Methyl eugenol],EC50,HarmOR8,106 µM
C=CCc1ccc(O)c(OC)c1 [Eugenol],EC50,"HarmOR25; HarmOR25, dose response in oocytes, unit M",81.6 µM
same,main ligand of HarmOR25,HarmOR25; clade E,main ligand
same,EC50,HarmOR29,18.9 µM
same,EC50,"HarmOR60; HarmOR60, dose response in oocytes, unit M",1.72 µM
same,main ligand of HarmOR60,HarmOR60; clade B,main ligand
same,EC50,HarmOR35,42.5 µM
COC(=O)Cc1ccccc1 [Methyl phenylacetate],EC50,HarmOR7,107 µM
same,EC50,HarmOR31,29.5 µM
C=CC(C)(O)CC/C=C(\C)CCC=C(C)C (stereo not shown) [(E)-Nerolidol],EC50,HarmOR26,0.0289 µM
same,EC50,HarmOR40,12.5 µM
same,EC50,HarmOR55,88.1 µM
same,response of the HarmOR repertoire,HarmOR repertoire,still responded
C=C1CC/C=C(\C)CC[C@@H]2[C@@H]1CC2(C)C [(-)-trans-Caryophyllene],EC50,HarmOR63,88.2 µM
